The record followed here is US20110053971A1, “NALMEFENE DI-ESTER PRODRUGS” (JANSSEN PHARMACEUTICA NV, priority 2008, published 2011).

A short description of the data set: In vivo PK studies in dog (oral administration): plasma levels of nalmefene. As to conditions: oral administration of nalmefene itself, Example C.2. As to the method:
Doses at 10 mg/kg or 20 mg/kg body weight of a compound of formula (I) or of nalmefene itself in a solution of 20% HP-β-CD (hydroxypropyl-β-cyclodextrines) were used and orally administered to dogs.
Blood samples were taken over a period of 192 hours after oral administration. Blood samples were processed to obtain plasma. Plasma samples were analysed individually for nalmefene by means of a qualified LC-MS/MS-method.

SMILES strings stand for the structures.

`C=C1CC[C@@]2(O)[C@H]3Cc4ccc(O)c5c4[C@@]2(CCN3CC2CC2)[C@H]1O5` [nalmefene, 17-cyclopropylmethyl-4,5α-epoxy-6-methylenemorphinan-3,14-diol]: the “time for which plasma levels of nalmefene can be measured after oral administration (in words)” value is recorded as “a few hours”.
